A word on the IC50: it is the concentration needed to halve the response being measured. The EC50 is the concentration giving half of the maximal effect.

SMILES strings stand for the structures. Like-named read-outs stand apart in the source and are kept apart here.

In one data set the target is T. brucei ENO (TbENO) (Trypanosoma brucei brucei, UniProt Q38BV6). The data set is described as follows: Recombinant TbENO coupled enzyme assay. The data set is classed as biochemical. How it is done:
Recombinant ENO and ENO Assays—Recombinant TbENO was expressed and purified using an approach modified from the purification of another trypanosome glycolytic enzyme. Briefly, the full-length open reading frame was cloned from Trypanosoma brucei brucei (a 427 strain) genomic DNA into the bacterial expression vector pQE-30 (Qiagen, MD, USA). This plasmid was transformed into M15pREP cells and protein expression induced with 0.25 mM isopropyl-b-d-1-thiogalactopyranoside (IPTG) overnight at 37 °C. Protein was purified on Ni-NTA agarose (Qiagen) as described.
ENO assays were performed in triplicate using a coupled reaction to measure enzyme activity. In short, enzyme (~50 nM) in assay buffer (100 mM HEPES, pH 8.0, 3.3 mM MgSO4, 120 mM KCl, 1.75 mM ADP, 1 U of pyruvate kinase/lactate dehydrogenase, and 0.4 mM NADH) was added to black 96-well plates. Reactions were initiated by the addition of substrate (3.75 mM 2-PG) and the rate of reduction in fluorescence emission at A460 was measured after excitation at A360 to monitor NAD^+ production. Assays were scored on a Biotek Synergy H1 microplate reader and kinetic analyses were performed with Prism 9.0 (GraphPad Software, San Diego, CA, USA) using the Michaelis–Menten model. To assess the impact of different pH on enzyme activity, the HEPES […] in the standard buffer was replaced with Good’s buffers 2-morpholinoethanesulfonic acid (MES, pH 6.5), HEPES (pH 7.0 to pH 8.5), or sodium borate (pH 9.0). For assays involving inhibitors, compounds (in DMSO) were incubated with the enzyme in assay buffer (pH 8.0) for 15 min prior to initiation of the reaction. All assays were performed in triplicate with vehicle control (DMSO) included.

A further data set deals with T. brucei BSF parasites. The data set is described as follows: BSF viability assay (CellTiter Blue). The data set is classed as cell-based, Trypanosoma brucei brucei. How it is done:
(§1) Trypanosome growth, viability assays, and Western blotting—T. brucei brucei 90-13 BSF parasites were cultured in HMI-9 medium supplemented with 10% heat-inactivated FBS and 10% Serum Plus (Sigma-Aldrich, St. Louis, MO, USA) at 37 °C in 5% CO2, while T. brucei brucei PF 29-13 were cultured in SDM-79 supplemented with 10% heat-inactivated FBS [16]. For BSF viability assays, parasites (1 × 10^5/mL) were seeded into 384-well black polystyrene plates in the presence of a compound or equivalently diluted carrier. CellTiter Blue reagent (Promega, Madison, WI, USA) was added after two days of culture, the plates incubated an additional 1 h, and fluorescence emission at A585 measured after excitation at A546. For PF viability assays, 1 × 10^6 parasites in standard medium, or 5 × 10^6 parasites in glucose-free medium, were introduced into black 96-well plates in standard culture medium in the presence of a compound or carrier, with CellTiter Blue reagent added after 48 h of culture. Plates were incubated for 1 h and fluorescence emission scored as described for BSF. Fluorescence values were used to calculate percent cell growth inhibition (based on controls) for each concentration of compound tested. Averages of the triplicates were calculated and fit to dose-response curves for the determination of EC50 values, using Prism 9.0 (GraphPad Software, San Diego, CA, USA).
(In general: Resazurin is reduced to fluorescent resorufin, in cell work by metabolically active cells.)

The test system of a further data set is HsENO2. Details: method as in PMID 33230295. Particulars: cited from earlier work; for IC50: included for comparative purposes, source not given.
Details of data set [1]: method as in PMID 33230295. Particulars: mammalian animal models, including non-human primates; cited from earlier work.
Another data set concerns ENO1-deficient tumors. Details: method as in PMID 33230295. Particulars: rodent model; cited from earlier work.
The subject of the next data set is PF parasites (PF 29-13). The data set is described as follows: Imaging of PF cellular and glycosomal morphology. Particulars: 6 µM, 2.5 h. The format is cell-based, Trypanosoma brucei. The source says: (§2) The following supporting information can be downloaded at: https://www.mdpi.com/article/10.3390/pathogens12111290/s1, Figure S1: Multiple sequence alignment of TbENO, HsENO2, and NfENO. Amino acid sequences of TbENO (Tb927.10.2890), HsENO2 (ENOG, P09104), and NfENO (NfTY_054390) were aligned using Clustal Omega (EMBL-EBI). Similar amino acids are indicated with (:) and absolute conservation of residues by (*). Figure S2: BSF morphology rapidly changes upon POMHEX treatment. For imaging, BSF (427 strain parasites) parasites bearing the transgene pXS6 AldoPTSeYFP (left) or PF pXS2 AldoPTSeYFP (PF 29-13) (right) for constitutive glycosomal expression of eYFP were cultured for 2.5 hr in DMSO vehicle or POMHEX (at 6 µM, a concentration equivalent to 10-fold the EC50 value). Cells were then washed, fixed (4% paraformaldehyde), and imaged on a on Leica 8 DMi8 microscope. Scale bar = 10 µm. Figure S3: The levels of the glycosome-resident protein aldolase change in response to POMHEX treatment. […] Western blots were visualized on a Analytik Jena UVP ChemStudio imager with Visual works imaging software and bands were quantitated using ImageJ. Percent change in aldolase amount was scored after normalization to loading by quantification of a prominent Coomassie-stained band (likely VSG). […] Cell viability was scored by propidium iodide exclusion, followed by analysis of 10,000 cells in the PC5.5 channel.

The next data set concerns T. brucei PF parasites. Briefly: PF viability assay (CellTiter Blue). Particulars: Trypanosoma brucei, 48 h. The data set is classed as cell-based. How it is done: as §1
Data set [2] deals with BSF parasites. Briefly: Trypanosome ROS assay (flow cytometry). The data set is classed as cell-based, Trypanosoma brucei. Particulars: 30 min, POMHEX 50 or 100 µM, H2O2 125 µM. How it is done:
BSF parasites (5 × 10^6 cells) were pelleted (800 × g, 10 min) then resuspended in PBS supplemented with 0.1% glucose (PBSg). Samples were treated with either ROS stain (Total Reactive Oxygen Species (ROS) Assay Kit 520 nm, Invitrogen) or DMSO and then incubated at 37 °C in 5% CO2 for 60 min. Samples were then treated with 125 μM H2O2, 50 μM POMHEX, 100 μM POMHEX, or equal volume DMSO, incubated for 30 min, and analyzed on a CytoFLEX flow cytometer (Beckman Coulter). Events (10,000) were recorded and analyzed using FCSexpress software. Median fluorescence intensity (MFI) was calculated, and Welch’s t-tests were performed (ns: not statistically significant, * p < 0.05, ** p < 0.01, *** p < 0.001). Each experiment was performed with biological triplicates in technical triplicates.
Background: In flow cytometry, cells or beads pass a laser one at a time.

Data set [3] concerns BSF parasites (BSF pXS6-eYFP-PTS1). The data set is described as follows: Imaging of BSF cell morphology. The data set is classed as cell-based, Trypanosoma brucei. Particulars: 6 µM, 2.5 h.
Excerpt: as §2

The test system of the next data set is T. brucei aldolase. Briefly: Aldolase western blot of BSF lysates. The data set is classed as cell-based, Trypanosoma brucei. Particulars: POMHEX 6 µM, 2.5 h.
Excerpt: as §2
A general note: Immunoblotting shows a protein as a band on a membrane.

For data set [4], the system named is BSF parasites. Briefly: Propidium iodide exclusion viability (flow cytometry). Particulars: 30 min. The data set is classed as cell-based, Trypanosoma brucei. How it is done: To monitor apoptotic-like responses, 5 × 10^6 parasites were collected, resuspended in fresh media containing 125 μM H2O2, 5 μM POMHEX, 50 μM POMHEX, 100 μM POMHEX, or equal volume of DMSO, and incubated at 37 °C in 5% CO2 for 30 min. Cells were washed once in PBS, resuspended in binding buffer (10 mM HEPES/NaOH, pH 7.4, 140 mM NaCl, 2.5 mM CaCl2) with propidium iodide (Enzo Life Sciences) and incubated for 15 min, followed by cytometry. Each experiment was performed with technical triplicates of biological triplicates. Median fluorescence intensity (MFI) was calculated, and Welch’s t-tests were performed (ns: not statistically significant, * p < 0.05, ** p < 0.01, *** p < 0.001).

The mark [5] stands for this setting: recombinant TbENO ~50 nM, pH 8.0, 15 min preincubation, 3.75 mM 2-PG, read-out: TbENO IC50.
[6] abbreviates: Trypanosoma brucei, 48 h, BSF, two days of culture, read-out: T. brucei BSF EC50.
Where [7] appears, read: Trypanosoma brucei, 48 h, read-out: T. brucei BSF EC50, BSF, two days of culture.

Sequence of T. brucei ENO (TbENO) (Q38BV6 entry or part of it): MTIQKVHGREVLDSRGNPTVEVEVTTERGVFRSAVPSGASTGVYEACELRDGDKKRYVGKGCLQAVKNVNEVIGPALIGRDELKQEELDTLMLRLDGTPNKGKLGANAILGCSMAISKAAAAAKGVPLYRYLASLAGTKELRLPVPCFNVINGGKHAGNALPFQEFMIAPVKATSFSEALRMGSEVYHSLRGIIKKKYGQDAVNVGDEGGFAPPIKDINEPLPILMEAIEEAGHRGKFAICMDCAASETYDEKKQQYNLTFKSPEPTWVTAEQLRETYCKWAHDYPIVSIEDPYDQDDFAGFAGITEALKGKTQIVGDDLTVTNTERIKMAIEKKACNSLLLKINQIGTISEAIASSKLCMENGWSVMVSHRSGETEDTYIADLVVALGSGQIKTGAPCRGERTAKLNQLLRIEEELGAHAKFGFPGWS

With `O=C1C(P(=O)(O)O)CCCCN1OCc1ccccc1` (stereo not drawn) [Benzyl-HEPTA], the half-inhibitory concentration (IC50) at T. brucei ENO (TbENO) (setting [5]) and in the data set on HsENO2 was greater than 10 µM in each case. Moreover, the EC50 in the data set on T. brucei BSF parasites (setting [6]) was greater than 10 µM.

In the case of `O=C1C(P(=O)(O)O)CCN1OCc1ccccc1` (stereo not drawn) [Benzyl-deoxy-SF2312], the “activity against TbENO at 10 µM” value on T. brucei ENO (TbENO) (at 10 µM) is “not active”. In addition, the IC50 on T. brucei ENO (TbENO) (setting [5]) and in the data set on HsENO2 was greater than 10 µM each time. Besides, the half-maximal effective concentration (EC50) in the data set with T. brucei BSF parasites (setting [6]) was greater than 10 µM.

`O=C1C(P(=O)(O)O)CCCN1OCc1ccccc1` (stereo not drawn) [BenzylHEX]: the IC50 on T. brucei ENO (TbENO) (setting [5]) is greater than 10 µM. The 50% effective concentration (EC50) with T. brucei BSF parasites (setting [6]) was greater than 10 µM. In the data set with HsENO2, the “activity against ENO2 (in words)” value is reported as “not active” and the IC50 was greater than 10 µM.

Take `O=C1C(P(=O)(O)O)CCN1O` (stereo not drawn) [Deoxy-SF2312, (1-hydroxy-2-oxopyrrolidin-3-yl) phosphonic acid]: the values for the IC50 at T. brucei ENO (TbENO) and with HsENO2 were 0.6 ± 0.23 µM and 0.1 ± 0.04 µM, respectively. Further, the EC50 in the data set with T. brucei BSF parasites (setting [7]) is greater than 10 µM.

As to `O=C1C(P(=O)(O)O)CCCCN1O` (stereo not drawn) [HEPTA, (1-hydroxy-2-oxoazepan-3-yl) phosphonic acid], at T. brucei ENO (TbENO), the IC50 is greater than 10 µM and the “activity against TbENO (in words)” value is “not active”. Besides, in the data set on T. brucei BSF parasites (setting [7]), the EC50 was greater than 10 µM. The half-inhibitory concentration (IC50) in the data set on HsENO2 was 5.8 ± 0.88 µM.

Regarding `O=C1C(P(=O)(O)O)CCCN1O` (stereo not drawn) [HEX, (1-hydroxy-2-oxopiperidin-3-yl) phosphonic acid], the tolerability result in data set [1] is given as “extremely well-tolerated”. In the data set on ENO1-deficient tumors, the “efficacy against ENO1-deficient tumors” value is on record as “curative”. In addition, the IC50 on T. brucei ENO (TbENO) was 2.1 ± 1.1 µM; in the data set with HsENO2 it was 0.36 ± 0.04 µM. The concentration for a half-maximal effect (EC50) is 10 ± 1 µM in the data set with T. brucei BSF parasites (setting [7]); 10 ± 1.4 µM in the data set on T. brucei BSF parasites (Trypanosoma brucei, read-out: T. brucei BSF EC50, HEX with formaldehyde, with 2 molar equivalent formaldehyde); greater than 10 µM in the data set with T. brucei BSF parasites (read-out: T. brucei BSF EC50, BSF, two days of culture).

On to `CC(C)(C)C(=O)OCOP(=O)(OCOC(=O)C(C)(C)C)C1CCCN(O)C1=O` (stereo not drawn) [POMHEX], for which the “PF cellular and glycosomal morphology” value with PF parasites (PF 29-13) is “remained largely unchanged”. In addition, the 50% inhibitory concentration (IC50) on T. brucei ENO (TbENO) (setting [5]) is 2.8 ± 0.64 µM; in the data set on HsENO2, greater than 10 µM. Also, the EC50 in the data set on T. brucei PF parasites (PF parasites cultured in glucose-free medium, read-out: PF EC50, glucose-free medium) came out at 5 ± 0.14 µM; in the data set with T. brucei PF parasites (PF parasites cultured in standard (5 mM) glucose, read-out: PF EC50, standard glucose), 0.81 ± 0.07 µM; with T. brucei BSF parasites (setting [6]), 0.61 ± 0.08 µM. In addition, the “ROS levels compared to untreated parasites” value with BSF parasites [2] is listed as “significant reduction in ROS levels”. Besides, in data set [3], the BSF cell morphology entry was “rapid change to overall cell shape”. In addition, the “decrease of aldolase levels vs vehicle-treated cells” value in the data set with T. brucei aldolase stood at 28%. In addition, the “range of aldolase reduction in three other replicates” value with T. brucei aldolase is on record as 28-55%. In addition, in the data set with BSF parasites [4] (50 µM), the “cell death by PI exclusion, 50 µM” value is on record as “did not lead to increased cell death”. Moreover, the “cell death by PI exclusion, higher concentration” value with BSF parasites [4] (100 µM) is reported as “increased cell death”.

Turning to `CC(C)(C)C(=O)OCOP(=O)(OCOC(=O)C(C)(C)C)C1CC(O)N(O)C1=O` (stereo not drawn) [POMSF], the EC50 in the data set with T. brucei BSF parasites (BSF, two days of culture, read-out: T. brucei BSF EC50) came to 0.45 ± 0.1 µM.

Take `OO` [hydrogen peroxide, reference compound]: in the data set with BSF parasites [2], the “ROS levels compared to untreated parasites” value was “increase in reactive species”.

The values above are taken from paper PMC10675445, “Enolase Inhibitors as Early Lead Therapeutics against Trypanosoma brucei” (Pathogens, 2023).
